Source: ChEMBL document CHEMBL6127063, “N-substituted-4-(pyridin-4-ylalkyl)piperazine-1-carboxamides and related compounds as Leishmania CYP51 and CYP5122A1 inhibitors” (Bioorg Med Chem, 2024)
The source made the active and inactive calls. No cut-off for these calls is given here.

Assays:
Leishmania donovani [1] = test: Antileishmanial activity against Leishmania donovani LV82 promastigotes assessed as inhibition of parasite proliferation; type: functional, organism-based
Leishmania donovani [2] = test: Antileishmanial activity against Leishmania donovani LV82 promastigotes infected in female mouse Peritoneal macrophage cells incubated for 72 hrs by DAPI staining based analysis; type: functional, organism-based
[3] = Inhibition of full length his-tagged recombinant Leishmania donovani CYP51-32c
Leishmania major [4] = test: Effect on 14-Methylfecosterol level in Leishmania major LV39 promastigotes assessed as fold change at 25 uM incubated for 48 hrs by LC-MS/MS analysis; type: functional
Leishmania major [5] = test: Effect on 4-Methylzymosterol level in Leishmania major LV39 promastigotes assessed as fold change at 25 uM incubated for 48 hrs by LC-MS/MS analysis; type: functional
Leishmania major [6] = test: Effect on Ergosta-5,7-dienol level in Leishmania major LV39 promastigotes assessed as fold change at 25 uM incubated for 48 hrs by LC-MS/MS analysis; type: functional
Leishmania major [7] = test: Effect on 4-CH2OH-LS sterol level in Leishmania major LV39 promastigotes assessed as fold change at 25 uM incubated for 48 hrs by LC-MS/MS analysis; type: functional
Leishmania major [8] = test: Effect on 4,14-Dimethylzymosterol level in Leishmania major LV39 promastigotes assessed as fold change at 25 uM incubated for 48 hrs by LC-MS/MS analysis; type: functional
Leishmania major [9] = test: Effect on Fecosterol level in Leishmania major LV39 promastigotes assessed as fold change at 25 uM incubated for 48 hrs by LC-MS/MS analysis; type: functional
Leishmania major [10] = test: Effect on Zymosterol level in Leishmania major LV39 promastigotes assessed as fold change at 25 uM incubated for 48 hrs by LC-MS/MS analysis; type: functional
Leishmania major [11] = test: Effect on Ergosterol level in Leishmania major LV39 promastigotes assessed as fold change at 25 uM incubated for 48 hrs by LC-MS/MS analysis; type: functional
Leishmania major [12] = test: Effect on Ergostatetraenol level in Leishmania major LV39 promastigotes assessed as fold change at 25 uM incubated for 48 hrs by LC-MS/MS analysis; type: functional
Leishmania major [13] = test: Effect on 5-Dehydroepisterol level in Leishmania major LV39 promastigotes assessed as fold change at 25 uM incubated for 48 hrs by LC-MS/MS analysis; type: functional
Leishmania major [14] = test: Effect on Cholesterol level in Leishmania major LV39 promastigotes assessed as fold change at 25 uM incubated for 48 hrs by LC-MS/MS analysis; type: functional
Leishmania major [15] = test: Effect on 7-Dehydrodesmosterol level in Leishmania major LV39 promastigotes assessed as fold change at 25 uM incubated for 48 hrs by LC-MS/MS analysis; type: functional
Leishmania major [16] = test: Effect on 14-methylzymosterol level in Leishmania major LV39 promastigotes assessed as fold change at 25 uM incubated for 48 hrs by LC-MS/MS analysis; type: functional
Leishmania major [17] = test: Effect on Cholesta-7,24-dienol level in Leishmania major LV39 promastigotes assessed as fold change at 25 uM incubated for 48 hrs by LC-MS/MS analysis; type: functional
Leishmania major [18] = test: Effect on lanosterol level in Leishmania major LV39 promastigotes assessed as fold change at 25 uM incubated for 48 hrs by LC-MS/MS analysis; type: functional
Leishmania major [19] = test: Effect on Episterol level in Leishmania major LV39 promastigotes assessed as fold change at 25 uM incubated for 48 hrs by LC-MS/MS analysis; type: functional
Leishmania donovani [20] = test: Antileishmanial activity against Leishmania donovani overexpressing CYP5122A1 at 1.2 to […]; type: functional, organism-based; conditions: dose 1.2-3.7 µM
Leishmania donovani [21] = test: Antileishmanial activity against Leishmania donovani promastigotes infected in mouse J774 cells assessed as inhibition of parasite proliferation; type: functional, organism-based
Leishmania major [22] = test: Effect on lanosterol level in Leishmania major LV39 promastigotes assessed as fold change at 17 uM incubated for 48 hrs by LC-MS/MS analysis; type: functional
Leishmania major [23] = test: Effect on Cholesterol level in Leishmania major LV39 promastigotes assessed as fold change at 17 uM incubated for 48 hrs by LC-MS/MS analysis; type: functional
Leishmania major [24] = test: Effect on 4-Methylzymosterol level in Leishmania major LV39 promastigotes assessed as fold change at 17 uM incubated for 48 hrs by LC-MS/MS analysis; type: functional
Leishmania major [25] = test: Effect on 4-CH2OH-LS sterol level in Leishmania major LV39 promastigotes assessed as fold change at 17 uM incubated for 48 hrs by LC-MS/MS analysis; type: functional
Leishmania major [26] = test: Effect on 4,14-Dimethylzymosterol level in Leishmania major LV39 promastigotes assessed as fold change at 17 uM incubated for 48 hrs by LC-MS/MS analysis; type: functional
Leishmania major [27] = test: Effect on Zymosterol level in Leishmania major LV39 promastigotes assessed as fold change at 17 uM incubated for 48 hrs by LC-MS/MS analysis; type: functional
Leishmania major [28] = test: Effect on Episterol level in Leishmania major LV39 promastigotes assessed as fold change at 17 uM incubated for 48 hrs by LC-MS/MS analysis; type: functional
Leishmania major [29] = test: Effect on Ergosta-5,7-dienol level in Leishmania major LV39 promastigotes assessed as fold change at 17 uM incubated for 48 hrs by LC-MS/MS analysis; type: functional
Leishmania major [30] = test: Effect on Ergostatetraenol level in Leishmania major LV39 promastigotes assessed as fold change at 17 uM incubated for 48 hrs by LC-MS/MS analysis; type: functional
Leishmania major [31] = test: Effect on Cholesta-7,24-dienol level in Leishmania major LV39 promastigotes assessed as fold change at 17 uM incubated for 48 hrs by LC-MS/MS analysis; type: functional
Leishmania major [32] = test: Effect on 14-methylzymosterol level in Leishmania major LV39 promastigotes assessed as fold change at 17 uM incubated for 48 hrs by LC-MS/MS analysis; type: functional
Leishmania major [33] = test: Effect on 7-Dehydrodesmosterol level in Leishmania major LV39 promastigotes assessed as fold change at 17 uM incubated for 48 hrs by LC-MS/MS analysis; type: functional
Leishmania major [34] = test: Effect on Fecosterol level in Leishmania major LV39 promastigotes assessed as fold change at 17 uM incubated for 48 hrs by LC-MS/MS analysis; type: functional
Leishmania major [35] = test: Effect on Ergosterol level in Leishmania major LV39 promastigotes assessed as fold change at 17 uM incubated for 48 hrs by LC-MS/MS analysis; type: functional
Leishmania major [36] = test: Effect on 5-Dehydroepisterol level in Leishmania major LV39 promastigotes assessed as fold change at 17 uM incubated for 48 hrs by LC-MS/MS analysis; type: functional
Leishmania major [37] = test: Effect on lanosterol level in Leishmania major LV39 promastigotes assessed as fold change at 2 uM incubated for 48 hrs by LC-MS/MS analysis; type: functional
Leishmania major [38] = test: Effect on 4,14-Dimethylzymosterol level in Leishmania major LV39 promastigotes assessed as fold change at 2 uM incubated for 48 hrs by LC-MS/MS analysis; type: functional
Leishmania major [39] = test: Effect on Cholesterol level in Leishmania major LV39 promastigotes assessed as fold change at 2 uM incubated for 48 hrs by LC-MS/MS analysis; type: functional
Leishmania major [40] = test: Effect on 4-CH2OH-LS sterol level in Leishmania major LV39 promastigotes assessed as fold change at 2 uM incubated for 48 hrs by LC-MS/MS analysis; type: functional
Leishmania major [41] = test: Effect on 5-Dehydroepisterol level in Leishmania major LV39 promastigotes assessed as fold change at 2 uM incubated for 48 hrs by LC-MS/MS analysis; type: functional
Leishmania major [42] = test: Effect on 14-Methylfecosterol level in Leishmania major LV39 promastigotes assessed as fold change at 2 uM incubated for 48 hrs by LC-MS/MS analysis; type: functional
Leishmania major [43] = test: Effect on 14-methylzymosterol level in Leishmania major LV39 promastigotes assessed as fold change at 2 uM incubated for 48 hrs by LC-MS/MS analysis; type: functional
Leishmania major [44] = test: Effect on Ergosta-5,7-dienol level in Leishmania major LV39 promastigotes assessed as fold change at 2 uM incubated for 48 hrs by LC-MS/MS analysis; type: functional
Leishmania major [45] = test: Effect on Ergosterol level in Leishmania major LV39 promastigotes assessed as fold change at 2 uM incubated for 48 hrs by LC-MS/MS analysis; type: functional

O=C(Nc1ccc(OCc2ccccc2)cc1)N1CCN(CCc2ccncc2)CC1
EC50 (Leishmania donovani [1]): > 100 µM

O=C(Nc1cc(C(F)(F)F)cc(C(F)(F)F)c1)N1CCN(Cc2ccncc2)CC1
EC50 (Leishmania donovani [2]): > 50 µM

Cc1cc(NC(=O)N2CCN(Cc3ccncc3)CC2)cc(C)c1C
EC50 (Leishmania donovani [1]): > 50 µM

O=C(Nc1ccc(OCc2cc(C(F)(F)F)cc(C(F)(F)F)c2)cc1)N1CCN(CCc2ccccc2)CC1
IC50 [3]: > 100 µM
EC50 (Leishmania donovani [1]): > 13 µM

COc1cc(NC(=O)N2CCN(Cc3ccncc3)CC2)cc(OC)c1
EC50 (Leishmania donovani [1]): > 100 µM

OC(Cn1cncn1)(Cn1cncn1)c1ccc(F)cc1F [FLUCONAZOLE]
fold change (FC) (Leishmania major [4]): 229
fold change (FC) (Leishmania major [5]): 0.6
fold change (FC) (Leishmania major [6]): 0.17
fold change (FC) (Leishmania major [7]): 0.42
fold change (FC) (Leishmania major [8]): 1.8
fold change (FC) (Leishmania major [9]): 0.6
fold change (FC) (Leishmania major [10]): 0.39
fold change (FC) (Leishmania major [11]): 0.31
fold change (FC) (Leishmania major [12]): 0.37
fold change (FC) (Leishmania major [13]): 0.25
fold change (FC) (Leishmania major [14]): 0.53
fold change (FC) (Leishmania major [15]): 0.044
fold change (FC) (Leishmania major [16]): 4.5
fold change (FC) (Leishmania major [17]): 0.38
fold change (FC) (Leishmania major [18]): 0.47
fold change (FC) (Leishmania major [19]): 0.6

COc1cccc(NC(=O)N2CCN(Cc3ccncc3)CC2)c1
EC50 (Leishmania donovani [1]): > 100 µM

Cc1ccc(NC(=O)N2CCN(Cc3ccncc3)CC2)cc1
EC50 (Leishmania donovani [1]): > 100 µM

Cc1cccc(NC(=O)N2CCN(Cc3ccncc3)CC2)c1
EC50 (Leishmania donovani [1]): > 100 µM

COc1ccc(NC(=O)N2CCN(Cc3ccncc3)CC2)cc1
EC50 (Leishmania donovani [1]): > 100 µM

O=C(Nc1ccc(OCc2cc(C(F)(F)F)cc(C(F)(F)F)c2)cc1)N1CCN(CCCc2ccccc2)CC1
EC50 (Leishmania donovani [1]): > 50 µM

O=C(Nc1cccc(F)c1)N1CCN(Cc2ccncc2)CC1
EC50 (Leishmania donovani [1]): > 100 µM

O=C(Nc1ccccc1)N1CCN(Cc2ccncc2)CC1
EC50 (Leishmania donovani [1]): > 100 µM

O=C(Nc1ccccc1Cl)N1CCN(Cc2ccncc2)CC1
EC50 (Leishmania donovani [1]): > 100 µM

O=C(Nc1ccc(Cl)cc1)N1CCN(Cc2ccncc2)CC1
EC50 (Leishmania donovani [1]): > 100 µM

O=C(Nc1ccc(OCc2cc(C(F)(F)F)cc(C(F)(F)F)c2)cc1)N1CCN(CCc2ccncc2)CC1
Activity (Leishmania donovani [20]): Active

O=C(Nc1ccc(OCc2cc(C(F)(F)F)cc(C(F)(F)F)c2)cc1)N1CCN(CCn2cncn2)CC1
EC50 (Leishmania donovani [21]): > 50 µM
EC50 (Leishmania donovani [1]): > 50 µM

O=C(Nc1ccc(F)cc1)N1CCN(Cc2ccncc2)CC1
EC50 (Leishmania donovani [1]): > 100 µM

Cc1ccccc1NC(=O)N1CCN(Cc2ccncc2)CC1
EC50 (Leishmania donovani [1]): > 100 µM

O=C(Nc1cccc(Cl)c1)N1CCN(Cc2ccncc2)CC1
EC50 (Leishmania donovani [1]): > 100 µM

O=C(Nc1ccc(OCc2cc(C(F)(F)F)cc(C(F)(F)F)c2)cc1)N1CCN(CCn2ccnc2)CC1
fold change (FC) (Leishmania major [22]): 31
fold change (FC) (Leishmania major [23]): 1.9
fold change (FC) (Leishmania major [24]): 3.2
fold change (FC) (Leishmania major [25]): 1.6
fold change (FC) (Leishmania major [26]): 1
fold change (FC) (Leishmania major [27]): 3.4
fold change (FC) (Leishmania major [28]): 3.2
fold change (FC) (Leishmania major [29]): 0.16
fold change (FC) (Leishmania major [30]): 2.4
fold change (FC) (Leishmania major [31]): 3.3
fold change (FC) (Leishmania major [32]): 0.48
fold change (FC) (Leishmania major [33]): 0.95
fold change (FC) (Leishmania major [34]): 3.2
fold change (FC) (Leishmania major [35]): 0.42
fold change (FC) (Leishmania major [36]): 0.69

O=C(Nc1ccc(C(F)(F)F)cc1)N1CCN(Cc2ccncc2)CC1
EC50 (Leishmania donovani [1]): > 50 µM

CC(C)(C)c1cccc(NC(=O)N2CCN(Cc3ccncc3)CC2)c1
EC50 (Leishmania donovani [21]): > 50 µM
EC50 (Leishmania donovani [2]): > 50 µM

Cc1cc(C)cc(NC(=O)N2CCN(Cc3ccncc3)CC2)c1
EC50 (Leishmania donovani [1]): > 50 µM

CC[C@@H]([C@H](C)O)n1ncn(-c2ccc(N3CCN(c4ccc(OC[C@@H]5CO[C@@](Cn6cncn6)(c6ccc(F)cc6F)C5)cc4)CC3)cc2)c1=O [POSACONAZOLE]
fold change (FC) (Leishmania major [37]): 3.6
fold change (FC) (Leishmania major [38]): 10
fold change (FC) (Leishmania major [39]): 1.3
fold change (FC) (Leishmania major [40]): 1.4
fold change (FC) (Leishmania major [41]): 0.02
fold change (FC) (Leishmania major [42]): 321
fold change (FC) (Leishmania major [43]): 3.1
fold change (FC) (Leishmania major [44]): 0.022
fold change (FC) (Leishmania major [45]): 0.027

CC(C)Oc1cccc(NC(=O)N2CCN(Cc3ccncc3)CC2)c1
EC50 (Leishmania donovani [1]): > 50 µM

O=C(Nc1cc(F)cc(F)c1)N1CCN(Cc2ccncc2)CC1
EC50 (Leishmania donovani [1]): > 100 µM
